Experimental data taken from US4202891A, “15-Oxygenated sterol compounds and the use of such compounds to inhibit the biosynthesis of sterols” (priority 1977, dated 1980).
Read-outs that look alike come from different tables or passages of the source.

Assays:
[1] = test system: sterol biosynthesis in L cells; test: Inhibition of sterol synthesis from [1-14C]acetate in L cell cultures; type: cell-based; conditions: Mus musculus, read-out: Concentrations Required for 50% Inhibition of Sterol Synthesis
Protocol: (§1) The effect of various 15-oxygenated sterols on sterol biosynthesis in L cells and in primary cultures of mouse liver cells was tested essentially under conditions described in detail previously [A. A. Kandutsch and H. W. Chen, J. Biol. Chem., Vol. 248, pp. 8408-8417 (1973) and A. A. Kandutsch and H. W. Chen, J. Biol. Chem., Vol. 249, pp. 6057-6061 (1974`)].
(§2) The primary liver cell cultures were prepared from 16-day-old (C57BL/6J fetuses and grown in chemically defined medium (serum-free) as described in the above cited publications. The L cells, a subline of NCTC clone 929 mouse fibroblasts, were grown in chemically defined medium (serum-free) as described in the publications. These L cells are transformed fibroblasts which are regarded as malignant since they will grow as tumors if injected into the mouse strain from which they were initially obtained.
(§3) The preparation of steroid-containing media, procedures for assays of the conversion of [1-^14 C]acetate into digitonin-precipitable sterols, fatty acids, and CO2 and methods for the measurement of DNA, protein, and HMG-CoA reductase were as described in the published articles. L cell cultures were preincubated with the 15-oxygenated sterols and their derivatives for 4 hours, then [1-^14 C]acetate was added at a concentration of 4 μmoles per ml (4 μCi per ml); or the L cell cultures were incubated for 5 hours with the 15-oxygenated sterols before they were harvested for determination of microsomal HMG-CoA reductase activity.
(§4) The test compounds were tested over a range of at least 4 concentrations and the assay was repeated until the concentration of test compound required to produce 50% inhibition was located on the steeply declining portion of an activity vs. concentration plot. To diminish any possible effects of generalized differences in cellular metabolism, the rates of sterol synthesis from [1-^14 C]acetate were calculated as the ratio of [^14 C]sterols to [^14 C]fatty acids as described in the two cited articles by Kandutsch and Chen.

liver = type: in vivo, rat (male, Sprague-Dawley); conditions: 5 mg s.c. once a day
Protocol: (§5) 3β-Hexadecanoyloxy-5α-cholest-8(14)-en-15-one (5 mg; dissolved in 0.25 ml of triolein), hereafter referred to as the "palmitate ester", or 3β-hemisuccinoyloxy-5α-cholest-8(14)-en-15-one (5 mg; suspended in 0.25 ml of triolein through the use of a tight-fitting all-glass homogenizer), hereafter referred to as the "hemisuccinate ester", were administered subcutaneously once a day at about 12 P.M. to each of eight and six rats, respectively. Control animals (8) received daily injections of triolein (0.25 ml).
The mean values of the liver weights of the triolein-treated rats (9.6 g±0.08, S.E.M.). S.E. differed from those of the palmitate ester-treated rats (11.4 g±0.5, S.E.M.). Similarly, the mean value of the liver weights, when expressed as a percentage of the total body weight, of the triolein-treated rats (4.09%±0.08, S.E.M.) differed from the mean value for the palmitate ester-treated rats (4.53%±0.09, S.E.M.).

serum cholesterol = test: Effect on serum cholesterol levels in rats, daily subcutaneous injection (Examples 41, 42); type: in vivo, rat (male, Sprague-Dawley); conditions: for Serum Cholesterol (Mean ± S.E.M.): 5 mg s.c. once a day in triolein; for % Reduction of serum cholesterol (Mean ± S.E.M.): from initial levels in same rats
Protocol: Male rats of the Sprague-Dawley strain were fed Purina rat chow ad libidum. The rats were maintained on a light (7 A.M.-6 P.M.) -dark (6 P.M.-7 A.M.) cycle throughout the study and for a period of at least 4 days prior to the initiation of the study.
as §5
Blood samples were taken from the rats periodically and the serum cholesterol concentrations measured, in duplicate, by the method of Abell et al., J. Biol. Chem., Vol. 195, pp. 357-366 ([…]).
Following generally the procedure described in Example 41, 3β-Ethoxy-14α-ethyl-5α-cholest-7-en-15-one (5 mg) in triolein (0.25 ml) was administered subcutaneously once a day to each of eight rats. Control animals (8) received daily injections of triolein (0.25 ml).
Similarly, 5α-cholest-8(14)-en-3β-ol-15-one (2mg) in (0.2 ml) olive oil or 5.0 mg in 0.5 ml of olive oil) was administered subcutaneously once a day to each of a group of rats. The 2 mg dose was administered to 12 rats, while a like number of rats received daily injections of 0.2 ml olive oil. 5 mg doses were administered to each of 6 rats, while 6 control animals received daily injections of 0.5 ml olive oil. The rats used in this study initially weighed between 110 and 190 grams.

[2] = type: in vivo, rat (male, Sprague-Dawley)
Protocol: as §5
The average percentage weight gain over the total experimental period in the palmitate, hemisuccinate, and triolein groups were (mean±S.E.M.) 40.5±4.6, 40.7±1.6, and 43.6±3.3, respectively.

HMG-CoA reductase [3] = test: Reduction of the activity of HMG-CoA reductase in primary cultures of liver cells; type: cell-based, mouse; conditions: read-out: Concentrations Required for 50% Reduction of the Activity of HMG-CoA Reductase
Protocol: as §2, §3
(§6) Conditions for incubating the 15-oxygenated sterols or their derivatives with liver cell cultures were similar to those described for L cell cultures except that the cultures were incubated with the test compounds for 12 hours before labeled acetate was added or before they were harvested for enzyme assay.
(§7) A number of the 15-oxygenated sterols have also been tested with respect to their effects on the activity and/or levels of the enzyme HMG-CoA reductase (3-hydroxy-3-methylglutaryl coenzyme A reductase) in the L cells and in the liver cells. As noted previously, this enzyme catalyzes the reduction of 3-hydroxy-3-methylglutaryl coenzyme A to yield mevalonic acid, an essential intermediate in the biosynthesis of sterols and of a number of other essential compounds in cells.
(§8) Using the technique described by Kandutsch and Chen in the article cited in the previous example, the concentrations of various 15-oxygenated sterols required to reduce the levels of activity of HMG-CoA reductase by 50% was determined in the cells of the L cells in culture and of the primary cultures of liver cells.

HMG-CoA reductase [4] = test: Reduction of the activity of HMG-CoA reductase in L cell cultures; type: cell-based, mouse; conditions: read-out: Concentrations Required for 50% Reduction of the Activity of HMG-CoA Reductase
Protocol: as §2, §3, §7, §8

[5] = test system: sterol biosynthesis in primary cultures of mouse liver cells; test: Inhibition of sterol synthesis from [1-14C]acetate in primary cultures of liver cells; type: cell-based; conditions: read-out: Concentrations Required for 50% Inhibition of Sterol Synthesis
Protocol: as §1, §2, §3, §6, §4

[6] = test system: sterol biosynthesis in L cells; conditions: L cell cultures; as reported by Kandutsch and Chen; read-out: Concentrations Required for 50% Inhibition of Sterol Synthesis; cited from earlier work
[7] = test system: sterol biosynthesis in primary cultures of mouse liver cells; conditions: primary cultures of liver cells, cited from earlier work; for IC50: as reported by Kandutsch and Chen, read-out: Concentrations Required for 50% Inhibition of Sterol Synthesis

Structure (SMILES) | IC50 (HMG-CoA reductase [3]) [µM] | IC50 (HMG-CoA reductase [4]) [µM] | IC50 [1] [µM] | IC50 [5] [µM] | also measured
CCCCCCCCCCCCCCCC(=O)O[C@H]1CC[C@@]2(C)[C@@H](CCC3=C4C(=O)C[C@H]([C@H](C)CCCC(C)C)[C@@]4(C)CC[C@@H]32)C1 [3β-hexadecanoyloxy-5α-cholest-8(14)-en-15-one] | – | – | – | – | IC50 ([1]; L cell cultures): > 16 µM; difference of liver weights from triolein-treated rats (in words) (liver): differed; liver weight (mean, S.E.M.) (liver): 11.4 g; liver weight as percentage of total body weight (mean, S.E.M.) (liver): 4.53%; Serum Cholesterol (Mean ± S.E.M.) (serum cholesterol; day 0 (initial)): 91.6 ± 2.6 mg per 100 ml; Serum Cholesterol (Mean ± S.E.M.) (serum cholesterol; day 3): 74.9 ± 3.9 mg per 100 ml; Serum Cholesterol (Mean ± S.E.M.) (serum cholesterol; day 6): 75.8 ± 5.0 mg per 100 ml; Serum Cholesterol (Mean ± S.E.M.) (serum cholesterol; day 9): 77.9 ± 5.9 mg per 100 ml; Serum Cholesterol (Mean ± S.E.M.) (serum cholesterol; day 12): 61.4 ± 3.9 mg per 100 ml; decrease in serum cholesterol levels (in words) (serum cholesterol; 5 mg s.c. once a day, after 3, 6, 9, 12 days vs same rats before, after 12 days vs triolein): significant decreases in serum cholesterol levels; % Reduction of serum cholesterol (Mean ± S.E.M.) (serum cholesterol; 5 mg s.c. once a day, day 3): 18.2 ± 3.3%; % Reduction of serum cholesterol (Mean ± S.E.M.) (serum cholesterol; 5 mg s.c. once a day, day 6): 15.7 ± 4.4%; % Reduction of serum cholesterol (Mean ± S.E.M.) (serum cholesterol; 5 mg s.c. once a day, day 9): 14.5 ± 2.9%; % Reduction of serum cholesterol (Mean ± S.E.M.) (serum cholesterol; 5 mg s.c. once a day, day 12): 33.2 ± 2.7%; average percentage weight gain (mean±S.E.M.) ([2]; 5 mg s.c. once a day, total experimental period): 40.5±4.6%; differences in growth versus vehicle-treated rats (in words) ([2]; daily s.c.): no significant differences in the growth
CO[C@H]1CC[C@@]2(C)[C@@H](CC=C3[C@@H]2CC[C@]2(C)[C@@H]([C@H](C)CCCC(C)C)C[C@H](O)[C@@]32C)C1 [3β-methoxy-14α-methyl-5α-cholest-7-en-15α-ol] | 1.6 | 3 | 0.3 | 1.9 | –
CO[C@H]1CC[C@@]2(C)[C@@H](CC=C3[C@@H]2CC[C@]2(C)[C@@H]([C@H](C)CCCC(C)C)C[C@@H](O)[C@@]32C)C1 [3β-methoxy-14α-methyl-5α-cholest-7-en-15β-ol] | 3.5 | 3.7 | 1.4 | 3.5 | –
CC(C)CCC[C@@H](C)[C@H]1C[C@H](O)[C@@H]2C3=CC[C@H]4C[C@@H](O)CC[C@]4(C)[C@H]3CC[C@]12C [5α,14β-Cholest-7-en-3β,15α-diol, 5α,14β-cholest-7-en-3β,15α-diol] | 12.5 | 6.7 | 3.2 | 7.5 | –
CC(C)CCC[C@@H](C)[C@H]1C[C@@H](O)[C@@H]2C3=CC[C@H]4C[C@@H](O)CC[C@]4(C)[C@H]3CC[C@]12C [5α,14β-Cholest-7-en-3β,15β-diol, 5α,14β-cholest-7-en-3β,15β-diol] | 6 | 4.5 | 1 | 2.5 | –
CC(C)CCC[C@@H](C)[C@H]1C[C@@H](O)C2=C3CC[C@H]4C[C@@H](O)CC[C@]4(C)[C@H]3CC[C@@]21C [5α-Cholest-8(14)-en-3β,15β-diol] | 16.1 | 2.5 | 1.8 | 10.3 | –
CC(C)CCC[C@@H](C)[C@H]1CC(O)C2=C3C(O)C[C@H]4C[C@@H](O)CC[C@]4(C)[C@H]3CC[C@@]21C (stereo partly drawn) [5α-cholest-8(14)-en-3β,7ε,15ε-triol] | 18 | 1.9 | – | – | IC50 ([1]; L cell cultures): 5 µM; IC50 ([5]; primary cultures of liver cells): 4.8 µM
CC[C@@]12C(=O)C[C@H]([C@H](C)CCCC(C)C)[C@@]1(C)CC[C@H]1C2=CC[C@H]2C[C@@H](O)CC[C@@]21C [14α-Ethyl-5α-cholest-7-en-3β-ol-15-one, 14α-ethyl-5α-cholest-7-en-3β-ol-15-one] | 2.1 | 1.9 | 0.3 | 2.1 | –
CC(C)CCC[C@@H](C)[C@H]1C[C@H](O)[C@@]2(C)C3=CC[C@H]4C[C@@H](O)CC[C@]4(C)[C@H]3CC[C@]12C [14α-Methyl-5α-cholest-7-en-3β,15α-diol] | 2 | 0.3 | 0.3 | 1.8 | –
CC(C)CCC[C@@H](C)[C@H]1C[C@@H](O)[C@@]2(C)C3=CC[C@H]4C[C@@H](O)CC[C@]4(C)[C@H]3CC[C@]12C [14α-Methyl-5α-cholest-7-en-3β,15β-diol] | 4.3 | 1.2 | 0.5 | – | –
CC(C)CCC[C@@H](C)[C@H]1CC(=O)[C@@]2(C)C3=CC[C@H]4C[C@@H](O)CC[C@]4(C)[C@H]3CC[C@]12C [14α-Methyl-5α-cholest-7-en-3β-ol-15-one, 14α-methyl-5α-cholest-7-en-3β-ol-15-one] | 2.8 | 0.3 | 0.3 | 4.5 | –
CC(C)CCC(O)[C@@H](C)[C@H]1CC[C@H]2[C@@H]3CC=C4C[C@@H](O)CC[C@]4(C)[C@H]3CC[C@]12C (stereo partly drawn) [Cholest-5-en-3β,22α-diol] | – | – | – | – | IC50 [6]: 3.7 µM; IC50 [7]: 6 µM
CC(C)CCC(=O)[C@@H](C)[C@H]1CC[C@H]2[C@@H]3CC=C4C[C@@H](O)CC[C@]4(C)[C@H]3CC[C@]12C [Cholest-5-en-3β-ol-22-one] | – | – | – | – | IC50 [6]: 1.7 µM; IC50 [7]: 37 µM
CC(C)CCC[C@@H](C)[C@H]1CC[C@H]2[C@@H]3CC=C4C[C@@H](O)CC[C@]4(C)[C@H]3CC[C@]12C [Cholesterol] | – | – | – | – | IC50 [7]: > 5200 µM; activity in the liver cell culture system (in words) [7]: inactive
